From US20240116923A1, “USE OF INDOLE, 6- AND 7-AZAINDOLE DERIVATIVES AS INHIBITORS OF FERROPTOSIS REGULATED CELL DEATH” (Seabelife, priority 2021, published 2024)
Like-named read-outs stand apart in the source and are kept apart here.

Tests used:
[1] = tested on: mouse hippocampal neuronal cell line HT22; assay: Neurotoxicity and excitotoxicity assay, HT22 cells + glutamate, erastin or RSL3, MTS cell viability; format: cell-based; details: Mus musculus
Description: (§1) The excitotoxicity model used was the mouse hippocampal neuronal HT22 cells treated with glutamate [Dixon et al., Cell, 2012, 149(5), 1060-1072]. Ferroptosis and oxidative stress are both associated in this glutamate-induced cell death [Chu et al., Neural Regen. Res., 2020, 15(3), 528-536]. Phenotypic screening was also carried out with additional cell death inducers, erastin and RSL3 ((1S,3R)-Ras-selective lethal), in HT22 and SH-SY5Y (human neuroblastoma cells). Erastin and RSL3 are well described molecules, used as chemical tools for the study of ferroptosis regulation and neuronal pathologies [Lewerenz et al., Front. Neurosci., 2018, 12: 214; Reichert et al., Int. J. Mol. Sci., 2020, 21, 8765].
(§2) Mouse hippocampal neuronal cell line (HT22, ATCC) and human neuroblastoma cell line (SH-SY5Y, ATCC) were grown in Dulbecco's Modified Eagle Medium (DMEM, Gibco) supplemented with 10% fetal bovine serum (FBS, Gibco) at 37° C. under 5% CO2 atmosphere. Neurotoxicity was induced by erastin or RSL3 and excitotoxicity was induced by glutamate. Cells were seeded in 96-well plates at 5,000 and 10,000 cells/well for HT22 and SH-SY5Y cell lines, respectively. Cells were treated with 0.5-1 μM Erastin (HT22 cells) or 10 μM Erastin (SH-SY5Y cells) or 5-10 mM glutamate (HT22 cells) or 0.5 μM RSL3 (HT22 cells) or 5 μM RSL3 (SH-SY5Y cells) for 24 h in presence of increasing concentrations of inhibitors. Cells treated with DMSO only were used as controls. Cell viability was assessed by MTS assay (CellTiter 96 AQueous One Solution Cell Proliferation assay, Promega).
(§3) In FIGS. 1, 2A and 2B, an inhibitor was added to HT22 (FIG. 1: compound 6) or SH-SY5Y (FIG. 2A: compound 6; FIG. 2B: compound 25) cells in the presence or not of cell death inducers (erastin, glutamate or RSL3). […] EC50 values for compounds 1-28 were calculated from dose-response curves using Graphpad Prism software.

[2] = tested on: human neuroblastoma cell line SH-SY5Y; assay: Neurotoxicity assay, SH-SY5Y cells + erastin or RSL3, MTS cell viability; format: cell-based; details: Homo sapiens
Description: as §1, §2, §3

[3] = HT-22, HT22 cells, 0.5 μM RSL3, 24 h, MTS, read-out: EC50 HT22 RSL3
[4] = HT-22, HT22 cells, 0.5-1 μM Erastin, 24 h, MTS, read-out: EC50 HT22 Erastin
[5] = SH-SY5Y cells, 5 μM RSL3, 24 h, MTS, read-out: EC50 SH-SY5Y RSL3
[6] = SH-SY5Y cells, 10 μM Erastin, 24 h, MTS, read-out: EC50 SH-SY5Y Erastin
[7] = HT-22, 24 h, read-out: EC50 HT22 Erastin
[8] = HT-22, 24 h, read-out: EC50 HT22 RSL3
[9] = HT-22, HT22 cells, 5-10 mM glutamate, 24 h, MTS, read-out: EC50 HT22 Glutamate
[10] = SH-SY5Y, 24 h, read-out: EC50 SH-SY5Y RSL3

Row | Compound | EC50 [1, 3] [µM] | EC50 [1, 4] [µM] | EC50 [2, 5] [µM] | EC50 [2, 6] [µM] | EC50 [1, 7] [µM] | EC50 [1, 8] [µM] | EC50 [1, 9] [µM] | EC50 [2, 10] [µM] | EC50 ([1]; HT-22, 24 h, read-out: EC50 HT22 Glutamate) [µM] | EC50 ([2]; SH-SY5Y, 24 h, read-out: EC50 SH-SY5Y Erastin) [µM]
1 | CCOc1ccc(-c2cc3c(N(C)c4ccccc4)ccnc3[nH]2)cc1 [Compound 44, 2-(4-ethoxyphenyl)-N-methyl-N-phenyl-1H-pyrrolo[2,3-b]pyridin-4-amine] | 7.12 | 0.43 | 2.66 | 4.43 | – | – | – | – | – | –
2 | Oc1ccc(-c2cc3cc(Br)ccc3[nH]2)cc1 [Compound 30, 4-(5-bromo-TH-indol-2-yl)phenol] | – | – | – | – | 7.5 | 7.5 | – | – | – | –
3 | CCOc1ccc(-c2cc3ccc(N)nc3[nH]2)cc1 [Compound 36, 2-(4-ethoxyphenyl)-1H-pyrrolo[2,3-b]pyridin-6-amine] | 0.27 | 0.32 | 0.07 | 0.23 | – | – | – | – | – | –
4 | Oc1ccc(-c2cc3ccc(Cl)nc3[nH]2)cc1 [Compound 37, 4-(6-chloro-1H-pyrrolo[2,3-b]pyridin-2-yl)phenol] | 9.11 | 11.8 | 1.22 | 7.13 | – | – | – | – | – | –
5 | CCOc1ccc(-c2cc3ccc(-c4cn[nH]c4)nc3[nH]2)cc1 [Compound 41, 2-(4-ethoxyphenyl)-6-(1H-pyrazol-4-yl)-1H-pyrrolo[2,3-b]pyridine] | 6.5 | – | 2.21 | 3.68 | – | – | – | – | – | –
6 | Oc1ccc2[nH]c(-c3ccc(OCc4ccccc4)cc3)cc2c1 [Compound 32, 2-(4-(benzyloxy)phenyl)-1H-indol-5-ol] | 1 | 2 | – | – | – | – | – | – | – | –
7 | CCOc1ccc(-c2cc3ccncc3[nH]2)cc1 [Compound 4, 2-(4-ethoxyphenyl)-1H-pyrrolo[2,3-c]pyridine] | 27.8 | > 25 | 5.42 | 7.66 | – | – | > 25 | – | – | –
8 | CC(C)(C)OC(=O)n1c(-c2ccc(O)cc2)cc2ccccc21 [Compound 29, tert-butyl 2-(4-hydroxyphenyl)-1H-indole-1-carboxylate] | 3.96 | 8.3 | 1.46 | – | – | – | 5.5 | – | – | –
9 | CCOc1ccc(-c2cc3cccnc3n2-c2ccc([N+](=O)[O-])cn2)cc1 [Compound 19, 2-(4-ethoxyphenyl)-1-(5-nitropyridin-2-yl)-1H-pyrrolo[2,3-b]pyridine] | 22.1 | 23.3 | 5.6 | 14.3 | – | – | 12.8 | – | – | –
10 | CCOc1ccc(-c2cc3ccncc3n2OC(=O)N(CC)CC)cc1 [Compound 34, 2-(4-ethoxyphenyl)-1H-pyrrolo[2,3-c]pyridin-1-yl diethylcarbamate] | – | – | – | – | > 50 | 16.8 | – | 6.62 | – | –
11 | CCOc1ccc(-c2cc3c(N4CCN(C)CC4)ccnc3[nH]2)cc1 [Compound 15, 2-(4-ethoxyphenyl)-4-(4-methylpiperazin-1-yl)-1H-pyrrolo[2,3-b]pyridine] | 7.19 | 1.54 | – | 2.45 | – | – | 0.5 | – | – | –
12 | COc1ccc(-c2cc3ccccc3[nH]2)cc1 [Compound 2, 2-(4-methoxyphenyl)-1H-indole] | – | – | – | – | 7.92 | 46 | – | 7.43 | 2.66 | 2.9
13 | CCOc1ccc(-c2[nH]c3ncccc3c2I)cc1 [Compound 17, 2-(4-ethoxyphenyl)-3-iodo-1H-pyrrolo[2,3-b]pyridine] | – | – | – | > 50 | – | – | – | – | – | –
14 | Oc1ccc(-c2cc3ccc(-c4ccc(O)nc4)nc3[nH]2)cc1 [Compound 40, 5-(2-(4-hydroxyphenyl)-1H-pyrrolo[2,3-b]pyridin-6-yl)pyridin-2-ol] | 4.98 | 13.3 | 0.95 | 5.06 | – | – | – | – | – | –
